How the values were obtained:
IFN-γ = details: MLN cells from mice day 6 after infection, 30 mM LiCO3 in drinking water, vs control group; FIG. 8E
Protocol: The mesenteric lymph node (MLN) cells were isolated from the mesentery of the mice on day 12 of infection using a syringe needle. After cells were gently suspended, tissue fragments were removed by passing through a 100-μm mesh. Cells were then transferred to RPMI 1640 medium and culture was started at 37° C. Subsequently, the MLN cells were stimulated with bacterial lysate at 37° C. for 72 hr.
Meanwhile, MLN cells were isolated by the method as described in Example 3 from the mice 6 days after the oral infection. The isolated MLN cells were stimulated in vitro with C. rodentium lysate and IFN-γ produced was quantified by ELISA.

C. rodentium = details: B10.D2 mice, vs control group
Protocol: 200 μl of the culture (a volume equivalent to 2-3×10^8 colony-forming unit (cfu) per mouse) was infected into the mice by oral administration through the diet. Mice were sacrificed after continued housing for a designated period of time. A segment of the distal colon was excised at 4.5 cm from the rectum and the fecal pellets were removed by washing with PBS. After weight measurement and macroscopic observation of the tissue, homogenization was performed with a Potter Elvehjem homogenizer (digital homogenizer, As One). The homogenate was serially diluted with cold PBS and then seeded on MacConkey's agar plates (Difco Laboratories). The number of the colonies produced on the plate was counted to determine CFU per mouse to be used as an indicator of the degree of infection. […]
Wild-type B10.D2 mice were orally infected with C. rodentium by the method as described in Example 3. Three days after infection, the mice were divided into three groups, and one group was sacrificed and the weight of the colon cleared of lumps of feces was measured. […] Each group was housed for three more days, and six days after the infection, the mice in the experimental and control groups were sacrificed and the weight of the colon was measured. […]

[1] = test system: bone marrow-derived dendritic cells (BMDCs); experiment: IL-12p70 production in LPS-stimulated BMDCs after pretreatment with GSK3β inhibitor (ELISA); details: BMDCs pretreated 1 hr with 10 nM SB216763 or 5 mM LiCl, then 1 μg/ml LPS for 24 hr; FIG. 7B
Protocol: Bone marrow-derived dendritic cells (BMDCs) were isolated from wild-type mice by the method as described in Example 2. […] Meanwhile, after pretreatment for 1 hr with 10 nM GSK3β inhibitor SB216763 (Sigma) or 5 mM LiCl, the isolated BMDCs were stimulated with a 1 μg/ml LPS solution for 24 hr. The content of IL-12 in the culture supernatants after the stimulation was quantified using the ELISA kit specific to anti-mouse IL-12p70.

Compound	expression level of IFN-γ in the lymph node cells (IFN-γ)	symptom of bacterial infection in the colon (colon weight, macroscopic and histopathological observation) (C. rodentium; 30 mM LiCO3 in drinking water from day 3 to day 6 after infection, FIG. 8A-C)	number of infecting bacteria in the colon (cfu) (C. rodentium; 30 mM LiCO3 in drinking water, day 6 after infection, p<0.05, FIG. 8D)	production of IL-12 (IL-12p70 in culture supernatant) [1]
O=C([O-])[O-].[Li+].[Li+] [LiCO3, lithium carbonate]	decreased	relieved	significantly decreased	–
[Cl-].[Li+] [LiCl, lithium chloride]	–	–	–	decrease
Cn1cc(C2=C(c3ccc(Cl)cc3Cl)C(=O)NC2=O)c2ccccc21 [SB216763, reference compound]	–	–	–	decrease

— patent US20080317875A1, “Inhibitor of PI3 kinase-dependent inflammatory cytokine synthesis and method for inhibiting the same” (priority 2006, published 2008)
